# Measured values as given in PMC5848165 (Toxins, 2018).
# Residues, ends and D or L forms follow the SMILES beside them.
# Tests used:
# rNav1.3 = biological target: T1, rNav1.3 (Rattus norvegicus, UniProt P08104); test: Whole-cell patch clamp, Nav1.3 in HEK293 cells; type: cell-based; settings: −10 mV from −80 mV holding
# T1 construct: expressed in transfected cells; host or cells: HEK293 (HEK293T) cells, transient
# From the text: (§1) Nine sodium channel subtypes have been identified and classified as TTX-S (Nav1.1–Nav1.4, Nav1.6, and Nav1.7) or TTX-R types (Nav1.5, Nav1.8, and Nav1.9). […] However, the subtype selectivity of JZTX-34 on the subtype of sodium channel is still unknown. In this work, effects of JZTX-34 on VGSC subtypes (Nav1.1–Nav1.8) were examined. Nav1.1–Nav1.7 were transfected into HEK293 cells and Nav1.8 currents were expressed in ND cells. Inward sodium currents were elicited by a 50 ms depolarizing potential to −10 mV from a holding potential of −80 mV every 5 s. […] No effects on other sodium channel subtypes were found (Nav1.1, Nav1.2, Nav1.4–Nav1.6, and Nav1.8) (Figure S2).
# Figure 2 Selectivity of JZTX-34 on sodium channel subtypes. […]
# (§2) The HEK293T cells were maintained in standard culture conditions (5% CO2 and 37 °C). […] After culturing for 36–72 h, cells with obvious green fluorescence were selected for sodium currents recordings the internal solution for sodium currents recording that contained (in mM) 140 CsF, 5 NaCl, 10 HEPES, 3 Na2-ATP, and 10 EGTA. […]
# (§3) Sodium currents were recorded from DRG, HEK293, and ND cells by the whole-cell patch-clamp technique at 25 °C. […] Experiments date were acquired from whole-cell Axon 700B patch clamp amplifier (Molecular Devices, Sunnyvale, CA, USA) and analyzed by the program Clampfit10.0 (Molecular Devices, Sunnyvale, CA, USA) and Sigmaplot. […]
# Nav1.8 = test: Whole-cell patch clamp, Nav1.8 in ND cells; type: cell-based, human; settings: 1 µM, −10 mV from −80 mV
# From the text: as §1, with “S2). […]” for “S2).”
# as §2, §3
# Nav1.7 = test: Gating properties of Nav1.7 (current-voltage, steady-state activation and inactivation); type: cell-based, human
# Description: We investigated the effects of this toxin on the gating properties of Nav1.7. The current-voltage relationship of Nav1.7 was investigated using step depolarization ranging from −80 to +80 mV from a holding potential of −80 mV. Under control conditions, the threshold of initial activation was about −40 mV, and the inward current peaked at −20 mV. […] The midpoint of channel activation before and after application of 1 µM toxin was −27.9 ± 3.3 and −28.1 ± 2.9 mV, respectively (Figure S3B). […] The effect of JZTX-34 on steady-state inactivation was also investigated using a standard two-pulse protocol as described in the legend. […]
# cDNA genes encoding rat Nav1.1, Nav1.2, Nav1.3, Nav1.4, Nav1.5, human Nav1.7 (hNav1.7), and hNav1.8 were subcloned into the vectors pRGB4 and pcDNA3.1-mod, respectively. The chimera of Nav1.5 (Nav1.7-DII-S3-S4) and Nav1.7 (Nav1.5-DIV-S3-S4) were constructed according the methods described previously. Mutations of Nav1.5 and Nav1.7 were constructed using QuikChange II XL Site-Directed Mutagenesis kit (Agilent Technologies Inc, Palo Alto, CA, USA). All chimera and mutations were sequenced to determine the right sequences.
# The HEK293T cells were maintained in standard culture conditions (5% CO2 and 37 °C). Then, 10% fetal bovine serum was added to Dulbecco’s modified Eagle’s medium. Sodium channel subtypes (Nav1.1–Nav1.5, Nav1.7), the chimera and mutants of Nav1.5 and Nav1.7 with β1subnit tagged with eGFP in a molar ratio of 2:1, were transiently co-transfected into HEK293 cells using Lipofectamine 3000 (Invitrogen, Carlsbad, CA, USA). Nav1.8, β1subnit, and eGFP were co-transfected into ND cells using the same protocol. After culturing for 36–72 h, cells with obvious green fluorescence were selected for sodium currents recordings the internal solution for sodium currents recording that contained (in mM) 140 CsF, 5 NaCl, 10 HEPES, 3 Na2-ATP, and 10 EGTA. […]
# as §3
# Data from Axon 700B patch clamp were analyzed by Clampfit10.0 (Molecular Devices, Sunnyvale, CA, USA). […] The G-V curves were obtained by calculating the conductance (G) at each voltage (V) using the equation G = I/(V1 − Vrev), with Vrev being the reversal potential determined for each cell individually. […] All the results from patch clamp and animal models are expressed as means ± standard error of the mean (SEM). Statistical significance was calculated using Student’s t-test and was defined as p < 0.05. […]
# T1 sequence (Q07699 19-218): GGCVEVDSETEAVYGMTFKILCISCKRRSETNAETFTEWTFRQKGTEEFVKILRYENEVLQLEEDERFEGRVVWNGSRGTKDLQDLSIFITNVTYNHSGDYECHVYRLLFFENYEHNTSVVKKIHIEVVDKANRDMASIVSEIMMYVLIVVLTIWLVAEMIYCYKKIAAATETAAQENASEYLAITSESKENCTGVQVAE
# T1 sequence (P08104 whole entry): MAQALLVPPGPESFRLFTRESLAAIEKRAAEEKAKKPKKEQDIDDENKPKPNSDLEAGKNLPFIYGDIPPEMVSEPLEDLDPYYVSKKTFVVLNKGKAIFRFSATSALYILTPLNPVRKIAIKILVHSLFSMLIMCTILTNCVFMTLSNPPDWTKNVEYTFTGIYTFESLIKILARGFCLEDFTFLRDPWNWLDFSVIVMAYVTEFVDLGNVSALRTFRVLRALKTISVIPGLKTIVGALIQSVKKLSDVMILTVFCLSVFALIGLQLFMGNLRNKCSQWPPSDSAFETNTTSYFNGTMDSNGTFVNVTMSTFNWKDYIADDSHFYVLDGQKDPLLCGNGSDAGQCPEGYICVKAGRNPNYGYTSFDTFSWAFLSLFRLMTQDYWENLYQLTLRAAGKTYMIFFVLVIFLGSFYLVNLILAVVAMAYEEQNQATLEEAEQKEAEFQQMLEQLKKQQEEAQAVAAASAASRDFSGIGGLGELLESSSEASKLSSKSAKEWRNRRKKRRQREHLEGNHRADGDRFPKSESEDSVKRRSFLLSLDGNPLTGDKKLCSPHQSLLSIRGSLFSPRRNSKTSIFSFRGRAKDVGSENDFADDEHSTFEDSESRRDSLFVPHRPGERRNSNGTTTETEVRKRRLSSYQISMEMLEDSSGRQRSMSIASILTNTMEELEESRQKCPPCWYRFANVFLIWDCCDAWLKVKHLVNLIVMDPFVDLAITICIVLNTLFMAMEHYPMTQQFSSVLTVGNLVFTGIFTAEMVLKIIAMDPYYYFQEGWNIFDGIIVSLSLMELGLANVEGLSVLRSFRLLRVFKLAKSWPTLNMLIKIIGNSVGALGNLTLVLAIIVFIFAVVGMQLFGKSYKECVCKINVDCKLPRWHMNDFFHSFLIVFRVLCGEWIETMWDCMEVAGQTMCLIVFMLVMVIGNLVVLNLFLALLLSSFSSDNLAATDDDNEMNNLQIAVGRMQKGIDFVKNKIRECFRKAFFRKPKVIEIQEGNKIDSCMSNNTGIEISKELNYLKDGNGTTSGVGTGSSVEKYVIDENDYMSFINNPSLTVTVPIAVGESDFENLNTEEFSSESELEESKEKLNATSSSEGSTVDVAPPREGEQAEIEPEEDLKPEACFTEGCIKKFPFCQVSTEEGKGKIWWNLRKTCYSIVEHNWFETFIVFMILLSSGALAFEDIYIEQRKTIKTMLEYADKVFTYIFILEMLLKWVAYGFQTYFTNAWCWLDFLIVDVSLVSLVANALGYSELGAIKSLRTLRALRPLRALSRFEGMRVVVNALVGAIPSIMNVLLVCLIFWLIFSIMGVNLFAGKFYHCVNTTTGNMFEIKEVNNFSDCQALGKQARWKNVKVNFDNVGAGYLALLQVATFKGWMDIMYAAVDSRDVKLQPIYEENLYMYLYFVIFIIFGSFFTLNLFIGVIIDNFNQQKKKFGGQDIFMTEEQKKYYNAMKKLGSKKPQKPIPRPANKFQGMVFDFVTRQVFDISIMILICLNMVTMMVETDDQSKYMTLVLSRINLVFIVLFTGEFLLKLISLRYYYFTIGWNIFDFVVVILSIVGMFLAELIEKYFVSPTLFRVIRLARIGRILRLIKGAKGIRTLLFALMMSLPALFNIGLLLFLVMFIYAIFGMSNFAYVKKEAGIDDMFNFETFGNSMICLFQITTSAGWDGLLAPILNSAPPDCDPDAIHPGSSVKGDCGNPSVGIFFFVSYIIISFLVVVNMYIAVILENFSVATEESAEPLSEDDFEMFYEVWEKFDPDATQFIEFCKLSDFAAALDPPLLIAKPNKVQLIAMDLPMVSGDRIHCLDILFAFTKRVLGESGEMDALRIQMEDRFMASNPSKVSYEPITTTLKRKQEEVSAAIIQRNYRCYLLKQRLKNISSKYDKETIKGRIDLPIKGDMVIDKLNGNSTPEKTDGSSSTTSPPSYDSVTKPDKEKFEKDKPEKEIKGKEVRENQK
structure (smiles),measurement,setting,value
"CC(C)C[C@@H]1NC(=O)[C@H](Cc2c[nH]c3ccccc23)NC(=O)[C@H](CCC(=O)O)NC(=O)[C@H](CCCNC(=N)N)NC(=O)[C@@H](NC(=O)[C@H](C)N)CSSC[C@@H]2NC(=O)[C@@H]3CSSC[C@@H](C(=O)N[C@H](C(=O)N[C@@H](Cc4c[nH]c5ccccc45)C(=O)N[C@@H](CC(=O)O)C(=O)N[C@@H](Cc4c[nH]c5ccccc45)C(=O)N[C@H](C(=O)N[C@H](C(=O)O)C(C)C)[C@@H](C)O)C(C)C)NC(=O)[C@H](Cc4c[nH]cn4)NC(=O)[C@H](Cc4ccc(O)cc4)NC(=O)[C@@H]4CCCN4C(=O)[C@H](Cc4c[nH]c5ccccc45)NC(=O)[C@H](CCCCN)NC(=O)[C@H](CCCCN)NC(=O)[C@H](CCCNC(=N)N)NC(=O)[C@H](CSSC[C@H](NC(=O)CNC(=O)CNC1=O)C(=O)N[C@@H](CO)C(=O)N[C@@H](CCCCN)C(=O)N[C@@H](CC(=O)O)C(=O)N[C@@H](C)C(=O)N[C@@H](CC(=O)O)C(=O)N3)NC(=O)[C@H](CCC(=O)O)NC(=O)[C@H](CC(C)C)NC(=O)[C@H](Cc1c[nH]cn1)NC(=O)[C@H](C)NC2=O [JZTX-34, Jingzhaotoxin-34] (HELM PEPTIDE1{A.C.R.E.W.L.G.G.C.S.K.D.A.D.C.C.A.H.L.E.C.R.K.K.W.P.Y.H.C.V.W.D.W.T.V}$PEPTIDE1,PEPTIDE1,2:R3-16:R3|PEPTIDE1,PEPTIDE1,9:R3-21:R3|PEPTIDE1,PEPTIDE1,15:R3-29:R3$$$V2.0; N-terminus and C-terminus assumed)",reduction of Nav1.3 currents,"rNav1.3; 1 µM, mean ± S.E.",29.4 ± 4.6%
same,IC50,"rNav1.3; Hill fit, n = 5",7.95 µM
same,effect on Nav1.8 currents,Nav1.8,No effects
same,shift of steady-state inactivation,Nav1.7; 1 µM,small hyperpolarizing shift in the steady-state inactivation
same,midpoint of steady-state inactivation with toxin,"Nav1.7; 1 µM, ""with or without"" toxin −67.3 and −73.7 mV, respectively, 500 ms prepulse −100 to −10 mV, test pulse −10 mV 20 ms, n = 5",about −67.3 mV
same,current-voltage relationship of Nav1.7,"Nav1.7; 1 µM, steps −80 to +80 mV from −80 mV holding",did not alter the current-voltage relationship
same,midpoint of channel activation after toxin,"Nav1.7; after 1 µM toxin (before: −27.9 ± 3.3 mV), Boltzmann fit, n = 5",−28.1 ± 2.9 mV
